Values of other authors, collected in patent US20220195167A1, “COMPOSITIONS COMPRISING STYRENATED BLOCK COPOLYMER, NON-POLAR OIL AND POLAR OIL” (L'OREAL, priority 2020, published 2022).

SMILES | log P
CC(C)CCCCCCCCCCCCCCC(=O)OC(C)C [Isopropyl isostearate] | 9.37
CCCCCCCC(=O)OCC(COC(=O)CCCCCCC)OC(=O)CCCCCCC [Tricaprylin] | 9.33
CC(C)CCCCCCCCCCCCCCCOC(=O)C(C)(C)C [Isostearyl neopentanoate] | 10.25
CCCCCCCCCCCCCCCC(=O)OC(C)C [Isopropyl palmitate] | 8.49
CC(C)CCCCCCCOC(=O)C(C)(C)C [Isodecyl neopentanoate] | 6.00
